Test results from US8415376B2, “Inhibitors of PI3 kinase” (Amgen Inc., priority 2008, dated 2013).

Legend:
[1] = target: T1, PI3Kα (Homo sapiens, UniProt P42336); assay: In vitro PI3K AlphaScreen assay; assay type: biochemical; conditions: average if run more than once
T1 construct: Full length p110 subunits of PI3K α, β and δ, N-terminally labeled with polyHis tag; polyHis (N); made in house; host or cells: Sf9 insect cells (baculovirus)
Procedure: In Vitro PI3K Alphascreen® Assay
The PI3K AlphaScreen® assay (PerkinElmer, Waltham, Mass.) measures the activity of a panel of four phosphoinositide 3-kinases: PI3Kα, PI3Kβ, PI3Kγ, and PI3Kδ. Each of these enzymes phosphorylates the 3′-hydroxyl group on phosphatidylinositiol (4,5)-bisphosphate (PIP2) to produce phosphatidylinositol (3,4,5)-trisphosphate (PIP3). This phosphorylation activity is measured using a GST-tagged PIP3 binding protein (Echelon Biosciences, Salt Lake City, Utah), an anti-GST-tagged Acceptor bead, and streptavidin-Donor bead. […] In the absence of this interaction, proximity of the Donor and Acceptor beads is decreased, producing a loss of luminescent signal which is inversely proportional to PI3K activity.
The enzyme reaction buffer is made using sterile water (Baxter, Deerfield, Ill.) and 50 mM Tris HCl pH 7, 14 mM MgCl2, 2 mM sodium cholate, and 100 mM NaCl. 2 mM DTT is added fresh the day of the experiment. The AlphaScreen® reaction buffer is made using sterile water and 10 mM Tris HCl pH 7.5, 150 mM NaCl, 0.10% Tween 20, and 30 mM EDTA. 1 mM DTT is added fresh the day of the experiment.
The source plates for this assay are 384-well Greiner clear polypropylene plates containing test compounds at 5mM and diluted 1:2 over 22 points. […] Source plates are replicated into 384-well Optiplates (PerkinElmer, Waltham, Mass.), 0.5 μL/well, to make assay-ready plates.
The different PI3K isoforms are each diluted in enzyme reaction buffer to 2× working solutions. […] Two different 2× substrate solutions are made in enzyme reaction buffer. In one solution, PI(4,5)P2 (Echelon Biosciences, Salt Lake City, Utah) is diluted to 10 μM and ATP is diluted to 20 μM. This solution is used in the assays testing PI3Kα and PI3Kβ. In a second solution, PI(4,5)P2 is diluted to 10 μM and ATP is diluted to 8 μM. This solution used in the assays testing PI3Kγ and PI3Kδ.
The AlphaScreen® reaction solutions are made using beads from the anti-GST AlphaScreen® kit (PerkinElmer, Waltham, Mass.). Two solutions are made in Alphascreen reaction buffer to 4× working concentrations. In one solution, biotinylated-IP4 (Echelon Biosciences, Salt Lake City, Utah) is diluted to 40 nM and streptavadin-Donor Beads are diluted to 80 μg/mL. In the second solution, PIP3-binding protein (Echelon Biosciences, Salt Lake City, Utah) is diluted to 40 nM and anti-GST-Acceptor Beads are diluted to 80 μg/mL. 10 μL/well of enzyme reaction buffer is added to Column 24 of the assay ready plates in place of enzyme. This is done for plates in the PI3Kα, β, and 67 assays.
Using a 384-well dispensing Multidrop (Titertek, Huntsville, Ala.), 10 μL/well of 2× enzyme (PI3Kα, β, δ) is added to Columns 1-23 of the appropriate assay ready plates (for PI3Kγ 10 μL is added to Columns 1-24). 10 μL/well of the appropriate substrate solution (the solution with 20 μM ATP for PI3Kα and β assays, and the solution with 8 μM ATP for PI3Kγ and δ assays) is then added to Columns 1-24 of the plates. Plates are then incubated at room temperature for 20 minutes.
In the dark, 10 μL/well of the Donor Bead solution is added to Columns 1-24 of the plates to quench the enzyme reaction. The plates are incubated at room temperature for 30 minutes. Still in the dark, 10 μL/well of the Acceptor Bead solution is also added to Columns 1-24 of the plates. The plates are then incubated in the dark for 1.5 hours. The plates are read on an Envision Multilabel Plate Reader (PerkinElmer, Waltham, Mass.) with a 680 nm excitation filter and a 520-620 nm emission filter.

[2] = tested on: phosphorylation of Akt at Serine 473; assay: pAkt AlphaScreen (U87 cell); assay type: cell-based; conditions: Homo sapiens, U-87 MG; U87 MG cells, pAkt Ser473; average
Procedure: pAkt Alphascreen (U87 Cell)
The pAkt AlphaScreen® assay (PerkinElmer, Waltham, Mass.) determines whether there is phosphorylation of Akt at Serine 473 by recruitment of a phosphospecific antibody. This assay was performed using U87 MG cells. The U87 growth media consists of MEM (Gibco, Carlsbad, Calif.) supplemented with 10% FBS (Gibco,), 1× Non-Essential Amino Acids (Gibco,) and 1× Penicillin/Streptomycin/Glutamine (Gibco). The cells were maintained weekly using 0.05% Trypsin (Gibco) and replated in 150 mm TC-Treated Culture Dishes (Corning, Corning, N.Y.).
The first day of the assay, the adherent cells were trypsinized, media was added to the loose cells and cells were mixed to a homogenous mixture. 0.5 ml of the homogenous mixture was counted on the Beckman Coulter® Vi-CELL™ XR (Fullerton, Calif.). 50 frames of cells were counted and the number of viable cells was determined. The cells were then diluted to 0.25 million cells per ml, and centrifuged at 200 rcf for 5 minutes. The media was removed and the cells were reconstituted in fresh media for plating. The cells were plated at 20 μl per well on the PerkinElmer® FlexDrop PLUS in Low Volume 384 Well White Tissue Culture Plates (Corning) with a final cell density of 5K cells per well. The plates were incubated overnight at 37° Celsius, 5% CO2.
On the second day, the compound plates were prepared, the cells were treated with compound and the pAkt reaction mix was added to the cell lysate. 384 well compound plates were prepared containing 1 μl of compound per well starting at 5 mM and diluted 1:2 across the row, resulting in a 22 well serial dilution. 39 μl of growth media was added to the compound plate in rows 1-22 using the PerkinElmer® FlexDrop PLUS resulting in a DMSO concentration of 2.5%. The cell plates and diluted compound plates were put onto the VELOCITY11™ VPREP™ 384 ST where the compound plate was mixed and 5 μl of serially diluted compound or controls was added to the cell plate. The final concentration of the compounds was 25 μM serially diluted to 11.9 pM in 0.5% DMSO. The cell plates were then incubated with compound for two hours at 37° Celsius, 5% CO2. After two hours, the media in the cell plates was aspirated using the BioTek® ELx405HT plate washer (Winooski, Vt.) removing the majority of media and compound without disturbing the adherent U87 cells. The following assay reagents are components of the SureFire® Akt (Ser 473) Phosphorylation 50K Point Kit (TGR BioSciences, Adelaide, Austalia) and an IgG Detection Kit (PerkinElmer, Waltham, Mass.). 5 μl of 1× Lysis Buffer was added to each well using the PerkinElmer® FlexDrop PLUS. The plates were then incubated at room temperature on a shaker for ten minutes. The AlphaScreen® reaction was prepared under low light conditions (subdued or green light) including p-Akt (Ser 473) Reaction Buffer, Dilution Buffer, Activation Buffer, Acceptor Beads and Donor Beads at a ratio of 40:20:10:1:1 respectively. The AlphaScreen® reaction was added to the cell lysate at 6 μl per well using the PerkinElmer® FlexDrop PLUS. The plates were placed in a humid environment to reduce edge effects and incubated overnight at room temperature with restricted air flow in the dark.
On the final day of the experiment, the plates were read on the PerkinElmer® EnVision™ 2103 Multilable Reader using the standard AlphaScreen® readout. The POC is calculated and the data is analyzed to report the IC50 IP for pAkt at Serine 473.
Activity data for the compounds tested in the PI3K cell based Akt assay is provided in Table 2 under the column heading U87

[3] = target: T2, mTOR (Homo sapiens, UniProt P42345); assay: In vitro mTOR assay (Lanthascreen); assay type: biochemical; conditions: average if run more than once
T2 construct: purchased Invitrogen (Carlsbad, Calif.)
Text: The Invitrogen (Carlsbad, Calif.) mammalian target of rapamycin (mTOR) Lanthascreen assay can be used to quantitate mTOR kinase activity in an in vitro setting. Active mTOR phosphorylates eukaryotic translation initiation factor 4E binding protein 1 (4E-BP1) on residue threonine 46. This phosphorylation event can be detected with a phospho-specific terbium (Tb) labeled Ab, in turn bringing the Tb label in close proximity to the GFP tagged 4E-BP1 and allowing for time-resolved fluorescence resonance energy transfer (TR-FRET), which correlates 4E-BP1 phosphorylation levels with mTOR kinase activity.
Enzyme reaction buffer can be prepared in deionized water containing 50 mM HEPES (pH 7.5), 0.01% Polysorbate 20, 1 mM EGTA, and 10 mM MnCl2.
Dilutions of the compound to be tested can be prepared in 96-well polypropylene plates (Fisher Scientific, Waltham, Mass.). One row represents a 10-point dose of compound diluted 1:3 in enzyme reaction buffer and 20% dimethyl sulfoxide (DMSO). The top concentration for all compounds is 36 μM. Wells 6 and 12 can serve as the no compound (DMSO only) and high compound controls.
An mTOR substrate solution can prepared in enzyme reaction buffer containing 1600 nM green fluorescent protein tagged eukaryotic translation initiation factor 4E binding protein 1 (GFP-4E-BP1) (Invitrogen, Carlsbad, Calif.) and 28 uM adenosine triphosphate (ATP) (Calbiochem, Gibbstown, N.J.).
mTOR enzyme (Invitrogen, Carlsbad, Calif.) can be diluted in enzyme reaction buffer to a working concentration of 100 ng/mL.
The enzyme assay can be run in 384 well low volume assay plates (Corning, Corning, N.Y.). 2.5 uL of substrate solution containing GFP-4E-BP1 and ATP can be added to appropriate wells in the assay plate followed by 2.5 μL of compound dilutions. 5 μL of appropriately diluted mTOR enzyme can be added and the reaction allowed to proceed for 1 hour at room temperature. Final reagent concentrations in the enzyme assay are 50 ng/mL mTOR, 400 nM GFP-4E-BP1, and 7 μM ATP.
The enzyme assay can be terminated upon the addition of 10 μL of 20 mM EDTA and 4 nM Tb-labeled anti-phospho-4E-BP1 [T46] antibody (Invitrogen, Carlsbad, Calif.). The assay plate can then be incubated at room temperature for 1 hour and results read on a Tecan Safire II plate reader (Tecan, Männedorf, Switzerland).

T2 sequence (P42345 1360-2549 limits assumed): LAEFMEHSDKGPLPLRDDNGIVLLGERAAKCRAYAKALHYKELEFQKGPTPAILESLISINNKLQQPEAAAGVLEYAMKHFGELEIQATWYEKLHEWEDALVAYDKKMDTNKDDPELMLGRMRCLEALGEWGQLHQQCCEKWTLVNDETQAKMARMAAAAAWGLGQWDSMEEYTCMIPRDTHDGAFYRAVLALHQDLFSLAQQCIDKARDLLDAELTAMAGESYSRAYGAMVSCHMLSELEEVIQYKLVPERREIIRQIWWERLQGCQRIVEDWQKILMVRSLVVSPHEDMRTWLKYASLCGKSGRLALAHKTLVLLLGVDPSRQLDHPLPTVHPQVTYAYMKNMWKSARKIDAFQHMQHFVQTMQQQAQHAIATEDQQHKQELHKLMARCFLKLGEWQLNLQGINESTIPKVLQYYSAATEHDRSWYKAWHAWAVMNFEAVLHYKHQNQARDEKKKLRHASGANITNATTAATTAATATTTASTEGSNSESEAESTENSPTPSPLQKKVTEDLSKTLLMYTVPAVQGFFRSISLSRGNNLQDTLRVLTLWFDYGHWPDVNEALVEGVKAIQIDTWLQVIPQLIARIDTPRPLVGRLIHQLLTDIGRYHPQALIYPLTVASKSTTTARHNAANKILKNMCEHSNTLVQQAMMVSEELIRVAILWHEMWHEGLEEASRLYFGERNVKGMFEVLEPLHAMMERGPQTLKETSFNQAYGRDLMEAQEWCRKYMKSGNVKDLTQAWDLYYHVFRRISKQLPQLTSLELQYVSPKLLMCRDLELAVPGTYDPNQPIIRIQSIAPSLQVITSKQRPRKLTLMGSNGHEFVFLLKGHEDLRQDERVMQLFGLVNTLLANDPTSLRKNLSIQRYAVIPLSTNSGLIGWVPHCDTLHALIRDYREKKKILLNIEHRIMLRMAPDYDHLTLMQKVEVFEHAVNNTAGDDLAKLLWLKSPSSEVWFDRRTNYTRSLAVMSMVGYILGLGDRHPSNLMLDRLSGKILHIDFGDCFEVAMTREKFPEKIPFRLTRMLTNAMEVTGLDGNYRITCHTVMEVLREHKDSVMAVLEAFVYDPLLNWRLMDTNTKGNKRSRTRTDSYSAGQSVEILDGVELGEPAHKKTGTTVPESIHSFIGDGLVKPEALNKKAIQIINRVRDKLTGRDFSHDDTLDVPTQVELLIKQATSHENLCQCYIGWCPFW
T1 sequence (P42336 whole entry): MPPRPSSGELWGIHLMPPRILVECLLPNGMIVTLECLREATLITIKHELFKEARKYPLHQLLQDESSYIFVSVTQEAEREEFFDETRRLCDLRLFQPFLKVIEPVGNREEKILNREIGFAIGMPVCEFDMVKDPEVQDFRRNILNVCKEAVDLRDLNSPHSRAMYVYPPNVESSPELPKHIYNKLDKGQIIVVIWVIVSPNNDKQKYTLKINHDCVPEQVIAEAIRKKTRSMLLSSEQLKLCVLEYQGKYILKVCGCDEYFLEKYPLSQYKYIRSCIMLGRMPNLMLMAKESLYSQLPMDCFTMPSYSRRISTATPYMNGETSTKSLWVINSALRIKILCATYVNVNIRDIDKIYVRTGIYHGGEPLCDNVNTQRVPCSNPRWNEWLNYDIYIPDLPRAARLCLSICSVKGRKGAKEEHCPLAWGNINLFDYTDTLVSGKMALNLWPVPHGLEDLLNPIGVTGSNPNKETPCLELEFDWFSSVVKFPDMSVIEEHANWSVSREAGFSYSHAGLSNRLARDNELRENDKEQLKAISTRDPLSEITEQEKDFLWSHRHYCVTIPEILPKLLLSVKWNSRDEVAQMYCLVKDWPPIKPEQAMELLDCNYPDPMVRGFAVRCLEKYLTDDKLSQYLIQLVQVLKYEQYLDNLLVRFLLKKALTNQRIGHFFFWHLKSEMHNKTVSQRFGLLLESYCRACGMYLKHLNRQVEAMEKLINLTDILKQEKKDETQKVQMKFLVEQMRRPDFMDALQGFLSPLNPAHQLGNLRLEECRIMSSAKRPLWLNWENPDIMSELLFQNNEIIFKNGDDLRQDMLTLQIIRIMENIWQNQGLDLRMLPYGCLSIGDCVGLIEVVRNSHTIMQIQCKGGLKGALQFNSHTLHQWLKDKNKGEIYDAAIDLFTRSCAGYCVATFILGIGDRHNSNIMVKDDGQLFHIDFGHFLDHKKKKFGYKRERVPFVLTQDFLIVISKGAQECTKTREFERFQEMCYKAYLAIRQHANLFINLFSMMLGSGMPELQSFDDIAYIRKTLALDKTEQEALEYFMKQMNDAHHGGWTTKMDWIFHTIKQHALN
T1 sequence (P27986 whole entry partner): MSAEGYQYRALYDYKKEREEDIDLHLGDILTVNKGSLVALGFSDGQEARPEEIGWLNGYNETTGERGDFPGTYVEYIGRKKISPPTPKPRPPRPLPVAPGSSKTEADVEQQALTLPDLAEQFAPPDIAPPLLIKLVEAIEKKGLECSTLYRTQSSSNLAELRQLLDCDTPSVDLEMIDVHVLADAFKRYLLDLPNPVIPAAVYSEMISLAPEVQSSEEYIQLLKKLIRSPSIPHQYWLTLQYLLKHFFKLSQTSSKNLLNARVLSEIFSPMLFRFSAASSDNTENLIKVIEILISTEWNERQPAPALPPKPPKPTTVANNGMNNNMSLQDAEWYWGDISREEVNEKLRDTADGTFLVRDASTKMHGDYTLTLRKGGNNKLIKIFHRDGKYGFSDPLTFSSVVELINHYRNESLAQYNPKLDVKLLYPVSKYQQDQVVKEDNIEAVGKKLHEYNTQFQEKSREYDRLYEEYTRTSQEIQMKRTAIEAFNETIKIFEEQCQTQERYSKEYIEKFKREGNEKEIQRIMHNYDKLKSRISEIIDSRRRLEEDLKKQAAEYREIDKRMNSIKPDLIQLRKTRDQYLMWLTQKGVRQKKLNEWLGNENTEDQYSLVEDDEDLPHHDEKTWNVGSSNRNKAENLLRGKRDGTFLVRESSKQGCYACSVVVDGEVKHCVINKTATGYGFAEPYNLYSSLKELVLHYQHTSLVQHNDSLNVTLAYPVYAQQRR

SMILES	Ki [1] [µM]	IC50 [2] [µM]	IC50 [3] [µM]
CS(=O)(=O)Nc1cc(-c2ccc3nccc(C4=CCOCC4)c3c2)cnc1Cl [Example 107, N-(2-chloro-5-(4-(3,6-dihydro-2H-pyran-4-yl)-6-quinolinyl)-3-pyridinyl)methanesulfonamide]	0.0017	0.0198	0.004
CS(=O)(=O)Nc1cc(-c2ccc3nccc(-c4cccnc4)c3c2)cnc1Cl [Example 116, N-(2-Chloro-5-(4-(pyridin-3-yl)quinolin-6-yl)pyridin-3-yl)methanesulfonamide]	0.0013	0.019	0.0029
C[C@@H]1CN(c2ccnc3ccc(-c4cnc(Cl)c(NS(C)(=O)=O)c4)cc23)C[C@H](C)O1 [Example 103, N-(2-chloro-5-(4-((2R,6S)-2,6-dimethyl-4-morpholinyl)-6-quinolinyl)-3-pyridinyl)methanesulfonamide]	0.0032	0.0556	0.0102
CN(C)c1ccc(-c2ccnc3ccc(-c4cnc(Cl)c(NS(=O)(=O)c5ccc(F)cc5)c4)cc23)cc1 [Example 102, N-(2-chloro-5-(4-(4-(dimethylamino)phenyl)-6-quinolinyl)-3-pyridinyl)-4-fluorobenzenesulfonamide]	0.0013	0.0641	0.0153
CN(C)S(=O)(=O)Nc1cc(-c2ccc3ncc(=O)n(-c4ccccc4)c3c2)cnc1Cl [Example 130, N-(2-chloro-5-(3-oxo-4-phenyl-3,4-dihydroquinoxalin-6-yl)pyridin-3-yl)dimethylaminosulfonamide]	0.0025	0.0087	0.0012
CS(=O)(=O)Nc1cc(-c2ccc3nccc(-c4ccncc4)c3c2)cnc1Cl [Example 118, N-(2-Chloro-5-(4-(pyridin-4-yl)quinolin-6-yl)pyridin-3-yl)methanesulfonamide]	0.0011	0.0127	0.0012
O=S1(=O)CCC(COc2ccnc3ccc(-c4cnc(Cl)c(NS(=O)(=O)c5ccc(F)cc5)c4)cc23)CC1 [Example 113, N-(2-Chloro-5-(4-((tetrahydro-2H-thiopyran-1,1-dioxide-4-yl)methoxy)quinolin-6-yl)pyridin-3-3-yl)-4-fluorobenzenesulfonamide]	0.0016	0.0444	0.0146
COc1cc(-c2ccnc3ccc(-c4cnc(Cl)c(NS(C)(=O)=O)c4)cc23)ccn1 [Example 106, N-(2-chloro-5-(4-(2-methoxy-4-pyridinyl)-6-quinolinyl)-3-pyridinyl)methanesulfonamide]	0.0019	0.0259	0.0034
CS(=O)(=O)Nc1cc(-c2ccc3nccc(NC4CCNCC4)c3c2)cnc1Cl [Example 88, N-(2-chloro-5-(4-(4-piperidinylamino)-6-quinolinyl)-3-pyridinyl)methanesulfonamide]	0.161	6.84	1.77
CC1(C)CN(c2ccnc3ccc(-c4cnc(Cl)c(NS(C)(=O)=O)c4)cc23)CCO1 [Example 90, N-(2-chloro-5-(4-(2,2-dimethyl-4-morpholinyl)-6-quinolinyl)-3-pyridinyl)methanesulfonamide]	0.0107	0.0484	0.0044
COCCN(C)S(=O)(=O)Nc1cc(-c2ccc3ncc(=O)n(-c4cccc(C(F)(F)F)c4)c3c2)cnc1Cl [Example 134, N-(2-Chloro-5-(3-oxo-4-(3-(trifluoromethyl)phenyl)-3,4-dihydroquinoxalin-6-yl)pyridin-3-yl) 2-methoxy-N-methylethanamino sulfonamide]	0.0185	0.0283	0.0042
COCC1CCCN1c1ccnc2ccc(-c3cnc(Cl)c(NS(C)(=O)=O)c3)cc12 (centres unmarked) [Example 81, N-(2-chloro-5-(4-(2-(methoxymethyl)-1-pyrrolidinyl)-6-quinolinyl)-3-pyridinyl)methanesulfonamide]	0.368	2.71	2.74
CCN(CCC#N)c1ccnc2ccc(-c3cnc(Cl)c(NS(C)(=O)=O)c3)cc12 [Example 78, N-(2-chloro-5-(4-((2-cyanoethyl)(ethyl)amino)-6-quinolinyl)-3-pyridinyl)methanesulfonamide]	0.0276	0.193	0.0117
C[C@H]1CN(c2ccnc3ccc(-c4cnc(Cl)c(NS(C)(=O)=O)c4)cc23)C[C@H](C)O1 [Example 109, N-(2-chloro-5-(4-((2S,6S)-2,6-dimethyl-4-morpholinyl)-6-quinolinyl)-3-pyridinyl)methanesulfonamide]	0.0032	0.0214	0.0137
O=S(=O)(Nc1cc(-c2ccc3nccc(N4CCOCC4)c3c2)cnc1Cl)c1cccnc1 [Example 101, N-(2-chloro-5-(4-(4-morpholinyl)-6-quinolinyl)-3-pyridinyl)-3-pyridinesulfonamide]	0.0027	0.0762	0.0036
COCCN(C)c1ccnc2ccc(-c3cnc(Cl)c(NS(=O)(=O)N(C)CCOC)c3)cc12 [Example 126, N′-(2-chloro-5-(4-((2-methoxyethyl)(methyl)amino)-6-quinolinyl)-3-pyridinyl)-N-(2-methoxyethyl)-N-methylsulfamide]	0.0801	0.669	0.134
CS(=O)(=O)Nc1cc(-c2ccc3nccc(-c4cccnc4)c3c2)cnc1-c1cccnc1 [Example 117, N-(5-(4-(Pyridin-3-yl)quinolin-6-yl)-2,3′-bipyridin-3-yl)methanesulfonamide]	0.0053	0.255	0.0015
O=c1c2cccnc2ccn1-c1cnc(Cl)c(NS(=O)(=O)c2ccc(F)cc2)c1 [Example 137, N-(2-chloro-5-(5-oxo-1,6-naphthyridin-6(5H)-yl)-3-pyridinyl)-4-fluorobenzenesulfonamide]	0.548	2.98	
